In US6677277B1, “Substituted sulphonyl amino(thio)carbonyl compounds and their use as herbicides” (Bayer Aktiengesellschaft, priority 1996, dated 2004):

Assays:
Format in all cases: in vivo
weeds [1] = experiment: Pre-emergence test; details: cf. Tables A-1 to A-5
Method: (§1) Pre-emergence Test Solvent: 5 parts by weight of acetone Emulsifier: 1 part by weight of alkylaryl polyglycol ether To produce a suitable preparation of active compound, 1 part by weight of active compound is mixed with the stated amount of solvent, the stated amount of emulsifier is added and the concentrate is diluted with water to the desired concentration. Seeds of the test plants are sown in normal soil. After about 24 hours, the soil is sprayed with the preparation of the active compound in such a way as to apply the particular amounts of active compound desired per unit area The concentration of the spray liquor is chosen so that the particular amounts of active compound desired are applied in 1000 l of water/ha. After three weeks, the degree of damage to the plants is rated in % damage in comparison to the development of the untreated control. The figures denote: [table]

Wheat [2] = experiment: Pre-emergence test/greenhouse; details: 60 g ai./ha, after three weeks
Method: as §1

Alopecurus [3] = experiment: Pre-emergence test/greenhouse; details: after three weeks
Method: as §1

Solanum [4] = experiment: Pre-emergence test/greenhouse; details: after three weeks
Method: as §1

Sorghum [5] = experiment: Pre-emergence test/greenhouse; details: after three weeks
Method: as §1

Veronica = experiment: Pre-emergence test/greenhouse; details: 60 g ai./ha, after three weeks
Method: as §1

Amaranthus [6] = experiment: Pre-emergence test/greenhouse; details: after three weeks
Method: as §1

Lolium [7] = experiment: Pre-emergence test/greenhouse; details: after three weeks
Method: as §1

Chenopodium = experiment: Pre-emergence test/greenhouse; details: after three weeks
Method: as §1

weeds [8] = experiment: Post-emergence test; details: cf. Tables B-1 to B-4
Method: as §1, with “Post-emergence” for “Pre-emergence”, “Test plants which have a height” for “Seeds”, “5-15 cm” for “the test plants”, “are” for “are sown in normal soil. After about 24 hours, the soil is”, “area.” for “area”

Xanthium = experiment: Post-emergence test/greenhouse; details: post-emergence; for % damage, Xanthium: after three weeks
Method: as §1, with “Post-emergence” for “Pre-emergence”, “Test plants which have a height” for “Seeds”, “5-15 cm” for “the test plants”, “are” for “are sown in normal soil. After about 24 hours, the soil is”, “area.” for “area”

Wheat [9] = experiment: Post-emergence test/greenhouse; details: for % damage, Wheat: after three weeks
Method: as §1, with “Post-emergence” for “Pre-emergence”, “Test plants which have a height” for “Seeds”, “5-15 cm” for “the test plants”, “are” for “are sown in normal soil. After about 24 hours, the soil is”, “area.” for “area”

Solanum [10] = experiment: Post-emergence test/greenhouse; details: post-emergence; for % damage, Solanum: after three weeks
Method: as §1, with “Post-emergence” for “Pre-emergence”, “Test plants which have a height” for “Seeds”, “5-15 cm” for “the test plants”, “are” for “are sown in normal soil. After about 24 hours, the soil is”, “area.” for “area”

Matricaria [11] = experiment: Post-emergence test/greenhouse; details: 125 g ai./ha, after three weeks
Method: as §1, with “Post-emergence” for “Pre-emergence”, “Test plants which have a height” for “Seeds”, “5-15 cm” for “the test plants”, “are” for “are sown in normal soil. After about 24 hours, the soil is”, “area.” for “area”

Amaranthus [12] = experiment: Post-emergence test/greenhouse; details: post-emergence, 125 g ai./ha, after three weeks
Method: as §1, with “Post-emergence” for “Pre-emergence”, “Test plants which have a height” for “Seeds”, “5-15 cm” for “the test plants”, “are” for “are sown in normal soil. After about 24 hours, the soil is”, “area.” for “area”

Maize = experiment: Pre-emergence test/greenhouse; details: after three weeks
Method: as §1

Alopecurus [13] = experiment: Post-emergence test/greenhouse; details: after three weeks
Method: as §1, with “Post-emergence” for “Pre-emergence”, “Test plants which have a height” for “Seeds”, “5-15 cm” for “the test plants”, “are” for “are sown in normal soil. After about 24 hours, the soil is”, “area.” for “area”

Ipomoea = experiment: Post-emergence test/greenhouse; details: for % damage, Ipomoea: after three weeks
Method: as §1, with “Post-emergence” for “Pre-emergence”, “Test plants which have a height” for “Seeds”, “5-15 cm” for “the test plants”, “are” for “are sown in normal soil. After about 24 hours, the soil is”, “area.” for “area”

Sorghum [14] = experiment: Post-emergence test/greenhouse; details: post-emergence; for % damage, Sorghum: after three weeks
Method: as §1, with “Post-emergence” for “Pre-emergence”, “Test plants which have a height” for “Seeds”, “5-15 cm” for “the test plants”, “are” for “are sown in normal soil. After about 24 hours, the soil is”, “area.” for “area”

Stellaria = experiment: Post-emergence test/greenhouse; details: for % damage, Stellaria: after three weeks
Method: as §1, with “Post-emergence” for “Pre-emergence”, “Test plants which have a height” for “Seeds”, “5-15 cm” for “the test plants”, “are” for “are sown in normal soil. After about 24 hours, the soil is”, “area.” for “area”

Lolium [15] = experiment: Post-emergence test/greenhouse; details: after three weeks
Method: as §1, with “Post-emergence” for “Pre-emergence”, “Test plants which have a height” for “Seeds”, “5-15 cm” for “the test plants”, “are” for “are sown in normal soil. After about 24 hours, the soil is”, “area.” for “area”

Matricaria [16] = experiment: Pre-emergence test/greenhouse; details: after three weeks
Method: as §1

Soya beans = experiment: Pre-emergence test/greenhouse; details: 125 g ai./ha, after three weeks
Method: as §1

[17] = 60 g ai./ha, rated after three weeks vs untreated control

CCOc1nn(C(=O)NS(=O)(=O)c2c(OC(F)(F)F)cccc2SC)c(=O)n1C [Example 35]
activity against weeds (weeds [1]): very strong activity
% damage, Wheat (Wheat [2]): 10%
% damage, Alopecurus (Alopecurus [3]; 60 g ai./ha): 100%
% damage, Solanum (Solanum [4]; 60 g ai./ha): 95%
% damage, Sorghum (Sorghum [5]; 60 g ai./ha): 90%
% damage, Veronica (Veronica): 100%
% damage, Amaranthus (Amaranthus [6]; 60 g ai./ha): 100%
% damage, Lolium (Lolium [7]; 60 g ai./ha): 95%
% damage, Chenopodium (Chenopodium; 60 g ai./ha): 100%

CSc1cccc(SC)c1S(=O)(=O)NC(=O)n1nc(SC)n(C)c1=O [Example 51]
activity against weeds (weeds [8]): very strong activity
% damage, Xanthium (Xanthium; 125 g ai./ha): 95%
% damage, Wheat (Wheat [9]; 125 g ai./ha): 20%
% damage, Solanum (Solanum [10]; 125 g ai./ha): 95%
% damage, Matricaria (Matricaria [11]): 95%
% damage, Amaranthus (Amaranthus [12]): 95%

CCc1nn(C(=O)NS(=O)(=O)c2c(OC(F)(F)F)cccc2SC)c(=O)n1C [Example 34]
activity against weeds (weeds [8]): very strong activity
activity against weeds (weeds [1]): very strong activity
% damage, Alopecurus (Alopecurus [3]; 60 g ai./ha): 100%
% damage, Solanum (Solanum [4]; 60 g ai./ha): 95%
% damage, Sorghum (Sorghum [5]; 60 g ai./ha): 90%
% damage, Maize (Maize; 60 g ai./ha): 20%
% damage, Amaranthus (Amaranthus [6]; 60 g ai./ha): 90%
% damage, Lolium (Lolium [7]; 60 g ai./ha): 80%
% damage, Chenopodium (Chenopodium; 60 g ai./ha): 90%
% damage, Xanthium (Xanthium; 60 g ai./ha): 95%
% damage, Wheat (Wheat [9]; 60 g ai./ha): 20%
% damage, Alopecurus (Alopecurus [13]; 60 g ai./ha): 90%
% damage, Ipomoea (Ipomoea; 60 g ai./ha): 80%
% damage, Solanum (Solanum [10]; 60 g ai./ha): 95%
% damage, Sorghum (Sorghum [14]; 60 g ai./ha): 100%
% damage, Stellaria (Stellaria; 60 g ai./ha): 80%
% damage, Lolium (Lolium [15]; 60 g ai./ha): 70%

CCOc1nn(C(=O)NS(=O)(=O)c2c(OC)cccc2SC)c(=O)n1C [Example 20]
activity against weeds (weeds [8]): very strong activity
activity against weeds (weeds [1]): very strong activity
% damage, Alopecurus (Alopecurus [3]; 60 g ai./ha): 100%
% damage, Solanum (Solanum [4]; 60 g ai./ha): 100%
% damage, Matricaria (Matricaria [16]; 60 g ai./ha): 100%
% damage, Sorghum (Sorghum [5]; 60 g ai./ha): 100%
% damage, Maize (Maize; 60 g ai./ha): 0%
% damage, Amaranthus (Amaranthus [6]; 60 g ai./ha): 100%
% damage, Lolium (Lolium [7]; 60 g ai./ha): 95%
% damage, Chenopodium (Chenopodium; 60 g ai./ha): 100%
% damage, Xanthium (Xanthium; 60 g ai./ha): 95%
% damage, Wheat (Wheat [9]; 60 g ai./ha): 20%
% damage, Alopecurus (Alopecurus [13]; 60 g ai./ha): 95%
% damage, Ipomoea (Ipomoea; 60 g ai./ha): 95%
% damage, Solanum (Solanum [10]; 60 g ai./ha): 100%
% damage, Sorghum (Sorghum [14]; 60 g ai./ha): 100%
% damage, Stellaria (Stellaria; 60 g ai./ha): 100%
% damage, Lolium (Lolium [15]; 60 g ai./ha): 90%

CCSc1cccc(OC)c1S(=O)(=O)NC(=O)n1nc(OC)n(C)c1=O [Example 30]
activity against weeds (weeds [8]): very strong activity
activity against weeds (weeds [1]): very strong activity
% damage, Alopecurus (Alopecurus [3]; 60 g ai./ha): 100%
% damage, Solanum (Solanum [4]; 60 g ai./ha): 95%
% damage, Matricaria (Matricaria [16]; 60 g ai./ha): 95%
% damage, Sorghum (Sorghum [5]; 60 g ai./ha): 95%
% damage, Maize (Maize; 60 g ai./ha): 0%
% damage, Amaranthus (Amaranthus [6]; 60 g ai./ha): 95%
% damage, Lolium (Lolium [7]; 60 g ai./ha): 100%
% damage, Chenopodium (Chenopodium; 60 g ai./ha): 90%
% damage, Xanthium (Xanthium; 125 g ai./ha): 100%
% damage, Alopecurus (Alopecurus [13]; 125 g ai./ha): 95%
% damage, Ipomoea (Ipomoea; 125 g ai./ha): 90%
% damage, Solanum (Solanum [10]; 125 g ai./ha): 100%
% damage, Sorghum (Sorghum [14]; 125 g ai./ha): 100%
% damage, Stellaria (Stellaria; 125 g ai./ha): 100%
% damage, Lolium (Lolium [15]; 125 g ai./ha): 90%

CCSc1cccc(OC(F)(F)F)c1S(=O)(=O)NC(=O)n1nc(OC)n(C)c1=O [Example 40]
activity against weeds (weeds [8]): very strong activity
activity against weeds (weeds [1]): very strong activity
% damage, Alopecurus (Alopecurus [3]; 125 g ai./ha): 100%
% damage, Soya beans (Soya beans): 20%
% damage, Solanum (Solanum [4]; 125 g ai./ha): 100%
% damage, Matricaria (Matricaria [16]; 125 g ai./ha): 100%
% damage, Sorghum (Sorghum [5]; 125 g ai./ha): 100%
% damage, Maize (Maize; 125 g ai./ha): 5%
% damage, Amaranthus (Amaranthus [6]; 125 g ai./ha): 100%
% damage, Lolium (Lolium [7]; 125 g ai./ha): 95%
% damage, Chenopodium (Chenopodium; 125 g ai./ha): 100%
Xanthium, % damage (Xanthium; [17]): 100%
Wheat, % damage (Wheat [9]; [17]): 20%
Ipomoea, % damage (Ipomoea; [17]): 90%
Solanum, % damage (Solanum [10]; [17]): 95%
Sorghum, % damage (Sorghum [14]; [17]): 80%
Stellaria, % damage (Stellaria; [17]): 95%

CCOc1nn(C(=O)NS(=O)(=O)c2c(OC(F)(F)F)cccc2SC(C)C)c(=O)n1C [Example 25]
activity against weeds (weeds [1]): very strong activity
% damage, Alopecurus (Alopecurus [3]; 125 g ai./ha): 100%
% damage, Soya beans (Soya beans): 20%
% damage, Solanum (Solanum [4]; 125 g ai./ha): 100%
% damage, Matricaria (Matricaria [16]; 125 g ai./ha): 95%
% damage, Sorghum (Sorghum [5]; 125 g ai./ha): 80%
% damage, Maize (Maize; 125 g ai./ha): 0%
% damage, Amaranthus (Amaranthus [6]; 125 g ai./ha): 95%
% damage, Lolium (Lolium [7]; 125 g ai./ha): 70%
% damage, Chenopodium (Chenopodium; 125 g ai./ha): 100%

CCOc1nn(C(=O)NS(=O)(=O)c2c(C)cccc2SCC)c(=O)n1C [Example 56]
activity against weeds (weeds [8]): very strong activity
% damage, Xanthium (Xanthium; 125 g ai./ha): 100%
% damage, Wheat (Wheat [9]; 125 g ai./ha): 10%
% damage, Solanum (Solanum [10]; 125 g ai./ha): 100%
% damage, Matricaria (Matricaria [11]): 100%
% damage, Amaranthus (Amaranthus [12]): 100%
